From the supplement of paper PMC13207355

Legend:
Settings in all cases: exposure time: 72 h
[1] = system: E31 (patient-derived glioblastoma stem cells of proneural subtype); assay: phenotypic distance (Euclidean, principal components) from DMSO controls (arbitrary units); higher = stronger morphological change
[2] = system: E34 (patient-derived glioblastoma stem cells of proneural subtype); assay: as above
[3] = system: E13 (patient-derived glioblastoma stem cells of classical subtype); assay: as above
[4] = system: E28 (patient-derived glioblastoma stem cells of classical subtype); assay: as above
[5] = system: E21 (patient-derived glioblastoma stem cells of mesenchymal subtype); assay: as above
[6] = system: FT3469 (normal neural stem cell line); assay: as above
[7] = system: E57 (patient-derived glioblastoma stem cells of mesenchymal subtype); assay: as above
[8] = system: E31; assay: surviving fraction (nuclei count normalised to DMSO); higher = more cells surviving (less toxic)
[9] = system: E34; assay: as above
[10] = system: E13; assay: as above
[11] = system: E28; assay: as above
[12] = system: E21; assay: as above
[13] = system: FT3469; assay: as above
[14] = system: E57; assay: as above
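Throughout, for phenotypic distance (Euclidean, principal components) from DMSO controls: cell Painting imaging in 384-well plates, CellProfiler features reduced to at least 20 principal components, Euclidean distance versus same-plate DMSO vehicle wells (0.1% v/v), median over six images per well.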
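Throughout, for surviving fraction (nuclei count normalised to DMSO): nuclei counted by high-content imaging of Hoechst-stained cells in laminin-coated 384-well plates, relative to 0.1% DMSO vehicle wells, with staurosporine as cell-death control.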

Cc1cc(/C=C/c2ccc3cc(N(C)C)ccc3[n+]2C)c(C)n1-c1ccccc1 [Pyrvinium pamoate]
Settings | phenotypic distance | surviving fraction
[1], 4.1 nM | 1.33 | –
[1], 12.3 nM | 1.04 | –
[1], 37 nM | 2.33 | –
[1], 111.1 nM | 5.34 | –
[1], 333.3 nM | 7.12 | –
[1], 1000 nM | 9.54 | –
[1], 3000 nM | 18.8 | –
[2], 4.1 nM | 0.966 | –
[2], 12.3 nM | 0.752 | –
[2], 37 nM | 1.33 | –
[2], 111.1 nM | 3.14 | –
[2], 333.3 nM | 3.58 | –
[2], 1000 nM | 4.06 | –
[2], 3000 nM | 6.46 | –
[3], 4.1 nM | 4.29 | –
[3], 12.3 nM | 1.32 | –
[3], 37 nM | 2.18 | –
[3], 111.1 nM | 4.63 | –
[3], 333.3 nM | 4.15 | –
[3], 1000 nM | 4.49 | –
[3], 3000 nM | 6.77 | –
[4], 4.1 nM | 0.873 | –
[4], 12.3 nM | 1.67 | –
[4], 37 nM | 2.93 | –
[4], 111.1 nM | 4.57 | –
[4], 333.3 nM | 4.5 | –
[4], 1000 nM | 4.93 | –
[4], 3000 nM | 9.86 | –
[5], 4.1 nM | 0.978 | –
[5], 12.3 nM | 1.16 | –
[5], 37 nM | 2.86 | –
[5], 111.1 nM | 4.87 | –
[5], 333.3 nM | 4.65 | –
[5], 1000 nM | 6.33 | –
[5], 3000 nM | 23.7 | –
[6], 4.1 nM | 1.38 | –
[6], 12.3 nM | 1.31 | –
[6], 37 nM | 2.27 | –
[6], 111.1 nM | 2.94 | –
[6], 333.3 nM | 3.78 | –
[6], 1000 nM | 7.4 | –
[6], 3000 nM | 13 | –
[7], 4.1 nM | 1.23 | –
[7], 12.3 nM | 0.86 | –
[7], 37 nM | 2.14 | –
[7], 111.1 nM | 6.51 | –
[7], 333.3 nM | 7.55 | –
[7], 1000 nM | 8.44 | –
[7], 3000 nM | 11.2 | –
[8], 4.1 nM | – | 1.01
[8], 12.3 nM | – | 0.828
[8], 37 nM | – | 0.484
[8], 111.1 nM | – | 0.21
[8], 333.3 nM | – | 0.146
[8], 1000 nM | – | 0.0654
[8], 3000 nM | – | 0
[9], 4.1 nM | – | 0.92
[9], 12.3 nM | – | 0.867
[9], 37 nM | – | 0.645
[9], 111.1 nM | – | 0.578
[9], 333.3 nM | – | 0.667
[9], 1000 nM | – | 0.443
[9], 3000 nM | – | 0.5
[10], 4.1 nM | – | 0.769
[10], 12.3 nM | – | 0.742
[10], 37 nM | – | 0.57
[10], 111.1 nM | – | 0.408
[10], 333.3 nM | – | 0.479
[10], 1000 nM | – | 0.264
[10], 3000 nM | – | 0.0823
[11], 4.1 nM | – | 0.853
[11], 12.3 nM | – | 0.704
[11], 37 nM | – | 0.547
[11], 111.1 nM | – | 0.278
[11], 333.3 nM | – | 0.195
[11], 1000 nM | – | 0.106
[11], 3000 nM | – | 0.0134
[12], 4.1 nM | – | 0.856
[12], 12.3 nM | – | 0.815
[12], 37 nM | – | 0.577
[12], 111.1 nM | – | 0.467
[12], 333.3 nM | – | 0.425
[12], 1000 nM | – | 0.149
[12], 3000 nM | – | 0.00213
[13], 4.1 nM | – | 0.97
[13], 12.3 nM | – | 0.882
[13], 37 nM | – | 0.866
[13], 111.1 nM | – | 0.677
[13], 333.3 nM | – | 0.61
[13], 1000 nM | – | 0.461
[13], 3000 nM | – | 0.0541
[14], 4.1 nM | – | 1.05
[14], 12.3 nM | – | 1.01
[14], 37 nM | – | 0.785
[14], 111.1 nM | – | 0.364
[14], 333.3 nM | – | 0.272
[14], 1000 nM | – | 0.155
[14], 3000 nM | – | 0.0231
